Source: US6962713B2, “Spot-on formulations for combating parasites” (Merial, priority 1919, dated 2005)
Where “and” joins values, the source holds several entries; their conditions need not be identical. Equal entries are not always repeated.

Key:
[1] = Plasma kinetics of ivermectin after subcutaneous injection of Ivomec to dogs; assay type: in vivo, dog; details: for Plasma concentrations of ivermectin / Plasma concentrations of ivermectin, Mean: Ivomec subcutaneous 400 μg.kg^−1, dogs
Experimental: This study was conducted in order to assess the pharmacokinetics of ivemectin in the dog after subcutaneous administration of Ivomec® at a dose of 400 μg.kg^−1 of ivermectin which is known to be effective on gastrointestinal nematodes and to have a route of reference for further development.
Five male Beagle dogs were injected a subcutaneous dose of 400 μg.kg^−1 of ivermectin. Blood samples were collected at intervals up to 56 days post-dosing. The determination of ivermectin in dog plasma was carried out by HPLC, using fluorescence detection after derivatization. The limit of quantification was 100 pg.ml^−1.

[2] = ivermectin, cited from earlier work
[3] = Ivomec subcutaneous 400 μg.kg^−1, 5 dogs, mean
[4] = Ivomec subcutaneous, dose 400 pg.kg^−1 [sic], individual dogs

## ivermectin
[1]; [3]
  AUC(0-∞), Mean: 227897 pg·days/mL
  Cmax, Mean: 28.935 ng/mL and ~30 ng/mL
[1]; 0, individual dogs
  Plasma concentrations of ivermectin: BLQ (The limit of quantification was 100 pg.ml^−1)
[1]; 0, mean of 5 dogs
  Plasma concentrations of ivermectin, Mean: BLQ (The limit of quantification was 100 pg.ml^−1)
[1]; 0.25 h, individual dogs
  Plasma concentrations of ivermectin: 275 pg.ml^−1 and BLQ (The limit of quantification was 100 pg.ml^−1) (2×) and 158 pg.ml^−1 and 1123 pg.ml^−1
[1]; 0.25 h, mean of 5 dogs (BLQ taken as 0)
  Plasma concentrations of ivermectin, Mean: 0.311 ng/mL
[1]; 0.5 h, individual dogs
  Plasma concentrations of ivermectin: 531 pg.ml^−1 and BLQ (The limit of quantification was 100 pg.ml^−1) (2×) and 183 pg.ml^−1 and 1757 pg.ml^−1
[1]; 0.5 h, mean of 5 dogs (BLQ taken as 0)
  Plasma concentrations of ivermectin, Mean: 0.494 ng/mL
[1]; 1 h, individual dogs
  Plasma concentrations of ivermectin: 952 pg.ml^−1 and BLQ (The limit of quantification was 100 pg.ml^−1) and 272 pg.ml^−1 and 1487 pg.ml^−1 and 257 pg.ml^−1
[1]; 1 h, mean of 5 dogs (BLQ taken as 0)
  Plasma concentrations of ivermectin, Mean: 0.594 ng/mL
[1]; 4 h, individual dogs
  Plasma concentrations of ivermectin: 3148 pg/mL and 935 pg/mL and 2519 pg/mL and 2788 pg/mL and 1621 pg/mL
[1]; 4 h, mean of 5 dogs
  Plasma concentrations of ivermectin, Mean: 2.202 ng/mL
[1]; 10 h, individual dogs
  Plasma concentrations of ivermectin: 9438 pg/mL and 2799 pg/mL and 7471 pg/mL and 6881 pg/mL and 2322 pg/mL
[1]; 10 h, mean of 5 dogs
  Plasma concentrations of ivermectin, Mean: 5.782 ng/mL
[1]; 24 h, individual dogs
  Plasma concentrations of ivermectin: 19192 pg/mL and 9322 pg/mL and 25996 pg/mL and 13986 pg/mL and 7730 pg/mL
[1]; 24 h, mean of 5 dogs
  Plasma concentrations of ivermectin, Mean: 15.245 ng/mL
[1]; 32 h, individual dogs
  Plasma concentrations of ivermectin: 21779 pg/mL and 11651 pg/mL and 28569 pg/mL and 18632 pg/mL and 11810 pg/mL
[1]; 32 h, mean of 5 dogs
  Plasma concentrations of ivermectin, Mean: 18.488 ng/mL
[1]; 48 h, individual dogs
  Plasma concentrations of ivermectin: 26256 pg/mL and 18359 pg/mL and 33716 pg/mL and 27200 pg/mL and 21450 pg/mL
[1]; 48 h, mean of 5 dogs
  Plasma concentrations of ivermectin, Mean: 25.396 ng/mL
[1]; 56 h, individual dogs
  Plasma concentrations of ivermectin: 23243 pg/mL and 18913 pg/mL and 33887 pg/mL and 20868 pg/mL and 22925 pg/mL
[1]; 56 h, mean of 5 dogs
  Plasma concentrations of ivermectin, Mean: 23.967 ng/mL
[1]; D 3, individual dogs
  Plasma concentrations of ivermectin: 23145 pg/mL and 23181 pg/mL and 38453 pg/mL and 22367 pg/mL and 25089 pg/mL
[1]; D 3, mean of 5 dogs
  Plasma concentrations of ivermectin, Mean: 26.447 ng/mL
[1]; D 4, individual dogs
  Plasma concentrations of ivermectin: 19498 pg/mL and 24875 pg/mL and 41257 pg/mL and 22550 pg/mL and 24955 pg/mL
[1]; D 4, mean of 5 dogs
  Plasma concentrations of ivermectin, Mean: 26.627 ng/mL
[1]; D 5, individual dogs
  Plasma concentrations of ivermectin: 13068 pg/mL and 21883 pg/mL and 28398 pg/mL and 21501 pg/mL and 21333 pg/mL
[1]; D 5, mean of 5 dogs
  Plasma concentrations of ivermectin, Mean: 21.237 ng/mL
[1]; D 7, individual dogs
  Plasma concentrations of ivermectin: 10892 pg/mL and 17800 pg/mL and 21415 pg/mL and 15434 pg/mL and 15695 pg/mL
[1]; D 7, mean of 5 dogs
  Plasma concentrations of ivermectin, Mean: 16.247 ng/mL
[1]; D 9, individual dogs
  Plasma concentrations of ivermectin: 5662 pg/mL and 12098 pg/mL and 11892 pg/mL and 10889 pg/mL and 12769 pg/mL
[1]; D 9, mean of 5 dogs
  Plasma concentrations of ivermectin, Mean: 10.662 ng/mL
[1]; D 14, individual dogs
  Plasma concentrations of ivermectin: 1924 pg/mL and 5269 pg/mL and 4248 pg/mL and 5752 pg/mL and 6285 pg/mL
[1]; D 14, mean of 5 dogs
  Plasma concentrations of ivermectin, Mean: 4.696 ng/mL
[1]; D 21, individual dogs
  Plasma concentrations of ivermectin: 162 pg/mL and 1034 pg/mL and 625 pg/mL and 746 pg/mL and 903 pg/mL
[1]; D 21, mean of 5 dogs
  Plasma concentrations of ivermectin, Mean: 0.694 ng/mL
[1]; D 28, individual dogs
  Plasma concentrations of ivermectin: BLQ (The limit of quantification was 100 pg.ml^−1) (2×) and 190 pg.ml^−1 and 108 pg.ml^−1 and 119 pg.ml^−1
[1]; D 28, mean of 5 dogs (BLQ taken as 0)
  Plasma concentrations of ivermectin, Mean: BLQ (The limit of quantification was 100 pg.ml^−1)
[1]; D 35, individual dogs
  Plasma concentrations of ivermectin: BLQ (The limit of quantification was 100 pg.ml^−1)
[1]; D 35, mean of 5 dogs
  Plasma concentrations of ivermectin, Mean: BLQ (The limit of quantification was 100 pg.ml^−1)
[1]; Ivomec subcutaneous, 400 μg.kg^−1, individual dogs
  tmax: 2 d (2×) and 4 d (2×) and 3 d
[1]; [4]
  AUC(0-t): 161141 pg·days/mL and 224572 pg·days/mL and 291636 pg·days/mL and 225830 pg·days/mL and 231319 pg·days/mL
  AUC(0-∞): 161690 pg·days/mL and 225452 pg·days/mL and 294236 pg·days/mL and 226283 pg·days/mL and 231824 pg·days/mL
  Cmax: 26.256 ng/mL and 24.875 ng/mL and 41.257 ng/mL and 27.2 ng/mL and 25.089 ng/mL
  t½: 2.35 days and 3.21 days and 2.88 days and 2.91 days and 2.94 days
[2]; food state of dogs not specified
  tmax, literature data: 2 to 4 h
[2]
  AUC, mean literature values: 107.318 ng·h/mL
  Cmax, mean literature values: more than 2000 pg. ml^−1
